Reference: patent publication US20220387604A1, “SELECTIVE DUAL HISTONE DEACETYLASE 6/8 (HDAC6/8) DEGRADERS AND METHODS OF USE THEREOF” (DANA-FARBER CANCER INSTITUTE, INC., priority 2019, published 2022)

Experiments:
[1] = tested on: other identified HDAC proteins; test: Quantitative proteomics of cellular protein abundance in Kelly cells: other identified HDAC proteins; format: cell-based, human; conditions: 1 μM, 5 hours, compared to DMSO control
Protocol: Lysis buffer (8 M Urea, 50 mM NaCl, 50 mM 4-(2hydroxyethyl)-1-piperazineethanesulfonic acid (EPPS) pH 8.5, protease and phosphatase inhibitors from Roche®) were added to the cell pellets and homogenized by 20 passes through a 21 gauge (1.25 in. long) needle to achieve a cell lysate with a protein concentration between 1-4 mg mL^−1. A micro-BCA assay (Pierce™) was used to determine the final protein concentration in the cell lysate. 200 μg of protein for each sample were reduced and alkylated as described in Donovan et al., Elife 7:e38430 (2018).
Proteins were precipitated using methanol/chloroform. Four volumes of methanol were added to the cell lysate, followed by one volume of chloroform, and finally three volumes of water. The mixture was vortexed and centrifuged to separate the chloroform phase from the aqueous phase. The precipitated protein was washed with three volumes of methanol, centrifuged and the resulting washed precipitated protein was allowed to air dry. The precipitated protein was resuspended in 4 M Urea, 50 mM HEPES pH 7.4, followed by dilution to 1 M urea with the addition of 200 mM EPPS, pH 8. Proteins were first digested with LysC (1:50; enzyme:protein) for 12 hours at room temperature. The LysC digestion was diluted to 0.5 M Urea with 200 mM EPPS pH 8 followed by digestion with trypsin (1:50; enzyme:protein) for 6 hours at 37° C. Tandem mass tag (TMT) reagents (Thermo Fisher Scientific) were dissolved in anhydrous acetonitrile (ACN) according to manufacturer's instructions.
Anhydrous ACN was added to each peptide sample to a final concentration of 30% v/v, and labeling was induced with the addition of TMT reagent to each sample at a ratio of 1:4 peptide:TMT label. […] The sample channels were combined at a 1:1:1:1:1:1:1:1:1:1:1 ratio, desalted using C18 solid phase extraction cartridges (Waters®) and analyzed by LC-MS for channel ratio comparison. Samples were then combined using the adjusted volumes determined in the channel ratio analysis and dried down in a speed vacuum. […]

[2] = target: T1, full length human HDAC8-EGFP (Homo sapiens, UniProt Q9BY41); test: HDAC8 reporter assay (HDAC8-EGFP with mCherry reporter); format: cell-based; conditions: 5 hour treatment, FIG. 6; hook effect at higher concentrations
T1 construct: Cells stably expressing the full length human HDAC8-EGFP with mCherry reporter; expressed in transfected cells; Cilantro2 vector (Addgene, 74450)
T1 sequence (Q9BY41 1-377): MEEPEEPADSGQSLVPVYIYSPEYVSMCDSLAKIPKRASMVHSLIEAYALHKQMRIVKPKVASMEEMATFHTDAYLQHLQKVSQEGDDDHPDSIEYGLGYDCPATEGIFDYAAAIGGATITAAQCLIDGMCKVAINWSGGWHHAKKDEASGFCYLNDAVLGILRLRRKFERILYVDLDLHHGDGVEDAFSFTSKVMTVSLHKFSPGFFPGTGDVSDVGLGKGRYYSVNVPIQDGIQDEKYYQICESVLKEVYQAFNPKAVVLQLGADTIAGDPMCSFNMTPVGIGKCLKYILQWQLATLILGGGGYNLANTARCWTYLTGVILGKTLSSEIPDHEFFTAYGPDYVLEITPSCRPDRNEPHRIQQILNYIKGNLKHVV
Protocol: Cells stably expressing the full length human HDAC8-EGFP with mCherry reporter in Cilantro2 vector (Addgene, 74450) were seeded at 30-50% confluency in 384-well plates with 50 μL FluoroBrite™ DMEM media (Thermo Fisher Scientific, A18967) containing 10% FBS per well a day before compound treatment. Compounds were dispensed using a D300e Digital Dispenser (HP), normalized to 0.5% DMSO, and incubated with cells for 5 hours. The assay plate was imaged immediately using an Acumen® High Content Imager (TTP Labtech) with 488 nm and 561 nm lasers in […] per well format. The resulting images were analyzed using CellProfiler™.
A series of image analysis steps (‘image analysis pipeline’) was constructed. First, the red and green channels were aligned and cropped to target the middle of each well (to avoid analysis of heavily clumped cells at the edges), and a background illumination function was calculated for both red and green channels of each well individually and subtracted to correct for illumination variations across the 384-well plate from various sources of error. An additional step was then applied to the green channel to suppress the analysis of large auto fluorescent artifacts and enhance the analysis of cell specific fluorescence by way of selecting for objects under a given size, 30 A.U., and with a given shape, speckles. mCherry-positive cells were then identified in the red channel filtering for objects between 8-60 pixels in diameter and using intensity to distinguish between clumped objects. The green channel was then segmented into GFP positive and negative areas and objects were labeled as GFP positive if at least 40% of it overlapped with a GFP positive area. The fraction of GFP-positive cells/mCherry-positive cells in each well was then calculated, and the green and red images were rescaled for visualization. The values for the concentrations that lead to a 50% degradation (DC50) were calculated using the nonlinear fit variable slope model in GraphPad Prism software.

O=C(/C=C/c1ccc(CN(CCOCCOCCNc2cccc3c2C(=O)N(C2CCC(=O)NC2=O)C3=O)CCc2c[nH]c3ccccc23)cc1)NO (stereo not drawn) [Compound 1, (E)-3-(4-(((2-(1H-indol-3-yl)ethyl)(2-(2-(2-((2-(2,6-dioxopiperidin-3-yl)-1,3-dioxoisoindolin-4-yl)amino)ethoxy)ethoxy)ethyl)amino)methyl)phenyl)-N-hydroxyacrylamide]
change of cellular protein levels of the other identified HDAC proteins (heat map FIG. 3) [1]: did not affect | degradation of GFP tagged HDAC8 in the reporter cell lines [2]: degradation of GFP tagged HDAC8

O=C(/C=C/c1ccc(CN(CCCCCNc2cccc3c2C(=O)N(C2CCC(=O)NC2=O)C3=O)CCc2c[nH]c3ccccc23)cc1)NO (stereo not drawn) [Compound 3, (E)-3-(4-(((2-(1H-indol-3-yl)ethyl)(5-((2-(2,6-dioxopiperidin-3-yl)-1,3-dioxoisoindolin-4-yl)amino)pentyl)amino)methyl)phenyl)-N-hydroxyacrylamide]
change of cellular protein levels of the other identified HDAC proteins (heat map FIG. 3) [1]: did not affect | degradation of GFP tagged HDAC8 in the reporter cell lines [2]: degradation of GFP tagged HDAC8

O=C(/C=C/c1ccc(CN(CCOCCNc2cccc3c2C(=O)N(C2CCC(=O)NC2=O)C3=O)CCc2c[nH]c3ccccc23)cc1)NO (stereo not drawn) [Compound 2, (E)-3-(4-(((2-(1H-indol-3-yl)ethyl)(2-(2-((2-(2,6-dioxopiperidin-3-yl)-1,3-dioxoisoindolin-4-yl)amino)ethoxy)ethyl)amino)methyl)phenyl)-N-hydroxyacrylamide]
change of cellular protein levels of the other identified HDAC proteins (heat map FIG. 3) [1]: did not affect | degradation of GFP tagged HDAC8 in the reporter cell lines [2]: degradation of GFP tagged HDAC8
